Entries after “also recorded” stand apart in the source; their conditions may differ.
What was measured:
tumour cells 786-0 [1] = test: Cell proliferation of 786-0 tumour cells (cell count and BrdU incorporation); assay type: cell-based, human; conditions: antagonist at different concentrations, medium without serum, 48 hrs
Description: (§1) The cells were cultured in plates with 24 wells (1 ml per well) and in plates with 96 well (100 μl per well) at the rate of 10,000 to 30,000 C/ml. The cells were cultivated in the medium with serum described above. For the assays with the RPTH1 antagonists, after 24 hrs of culture, the medium was changed for a medium without serum containing 0.1% BSA (bovine serum albumin, Sigma) and the antibiotics. This manipulation facilitates cultivation of the cells in the absence of the factors present in the serum and facilitates assessment of the influence of the antagonist on cell proliferation. […]
(§2) The cell proliferation was determined by two means, on the one hand by counting the cells (manual counting) using plates with 24 wells and on the other hand by measuring the incorporation of 5-bromo-2′-deoxyuridine (BrdU) using plates with 96 wells.
(§3) The culture medium is removed by suction and an adequate volume of trypsin-EDTA (Sigma) is added. […] The cells are then recovered and manually counted with a counting cell placed under an optic microscope. […]
(§4) For the experiments in vitro, the results of the manual counts are expressed as a percentage of the number of cells present in the control wells. […] The incorporations in response to the treatments are thus expressed as a percentage of the incorporations of positive controls taken as 100% incorporation. […]

tumour cells UOK-128 = test: Cell proliferation of UOK-128 tumour cells (cell count and BrdU incorporation); assay type: cell-based, human; conditions: different concentrations, medium without serum, 48 hrs
Description: as §1, §2, §3, §4

[2] = test system: 786-0 cells implanted subcutaneously; test: First experimental protocol: subcutaneous 786-0 tumours in nude mouse, daily RPTH1 antagonist; assay type: in vivo
Description: (§5) The 786-0 cells were cultivated in the RPMI 1640 medium supplemented with serum until confluence. The cells were recuperated by trypsination and re-suspended in RPMI 1640 medium without serum and without antibiotics at the rate of 5 million cells/200 μl the same day of implantation of the mice. The cells were implanted subcutaneously in the backs of nude mice at the rate of 200 μl per implantation. A week to 10 days after the implantation of the cells, the tumours developed forming nodules of approximately 60 to 300 mm^3. From this moment, the treatments were initiated according to three protocols: a pilot protocol which was performed in order to determine the effectiveness of the treatments in vivo and carried out on two mice per experimental condition receiving 4 implantations (namely 8 tumours/experimental condition) and two experimental protocols elaborated following the results obtained with the pilot protocol on 10 or 5 mice per experimental condition and receiving 1 or 2 implantations (namely 10 tumours/experimental condition).
First Experimental Protocol. […] Consequently, in this protocol, on the one hand the numbers in each group were increased (10 mice with a tumour/experimental group) and on the other hand daily injections either of water (control) or of the RPTH1 antagonist (dissolved in sterile water) were performed. As for the pilot protocol, all the injections were performed intraperitoneally (200 μl water or 20 μg/mouse of antagonist in 200 μl) and intratumourally (100 μl of water or 10 μg/mouse of antagonist in 100 μl). For this series, the size of the tumours was measured in a blind way twice a week under light gas anaesthesia with isoflurane. At the end of the experimental period, the mice were anaesthetised with pentobarbital. Approximately 0.5 ml of blood was then recovered rapidly through intracardiac puncture of each mouse for the dosage of electrolytes and circulating PTHrP. The tumours were dissected and fixed in formol for subsequent histo-pathological studies (necrotic aspect) and immunohistochemical studies (factor VIII, PTHrP, RPTH1, mitotic index and apoptotic index).
Proliferative and Apoptotic Index. The proliferation index was determined by coloration of tumour section with a monoclonal mouse antibody anti-Ki67 human, Dako, Trappes, France) using standard methods. The detection kit of apoptotic cells based upon the TUNEL method (Roche Diagnostics) was used to measure the apoptotic index on the sections. The total cells and those coloured in 15 fields (0.25 mm^2 each) of the highest cell coloration were counted in order to determine the two indexes which are expressed as a percentage of coloured cells in relation to total cells.
Factor VIII and Microvascular Density. The tumour sections were coloured for the endothelial cells with a rabbit polyclonal antibody anti-human […], (Dako) using standard methods. The density of the micro-vessels was determined by counting the intersection points between vessels and the total number of vessels of 4 to 5 fields (0.25 mm^2 each) showing the highest vascular density.
(§6) For the experiments in vivo in the nude mouse, the results of tumour growths were expressed as a percentage of the size at day 0 of the treatments. The results are expressed as a mean +/−ESM. […]

tumour cells UOK-126 = test: Cell proliferation of UOK-126 tumour cells (cell count and BrdU incorporation); assay type: cell-based, human; conditions: different concentrations, medium without serum, 48 hrs
Description: as §1, §2, §3, §4

tumour cells 786-0 [3] = test: Analysis of cell death/apoptosis (detachment, OA/EB staining, DNA laddering); assay type: cell-based, human; conditions: 48 hrs
Description: The cells were treated under control conditions or with either an anti-PTHrP N-terminal antibody at 1.5 μg/ml or a RPTH1 antagonist at 1 μM for 48 hrs. The orange acridine (OA) and the ethidium bromide (EB) were dissolved in a PBS buffer and added at 2 μg/ml in the culture medium. The cells were observed and photographed under fluorescence microscopy, either for the FITC (OA) or for the TRITC (EB). The fragmentation of the internucleosomal DNA was detected by a “DNA laddering” test. The cells were re-suspended in 300 μl of lysis buffer (25 mM EDTA, 1% SDS, 1 mg/ml proteinase K, pH 8) and incubated overnight at 50° C. DNA was extracted by phenol/chloroform, precipitated with ethanol and analysed by electrophoresis on agarose gel.

[4] = test system: 786-0 cells implanted subcutaneously; test: Pilot protocol: subcutaneous 786-0 tumours in nude mouse, twice weekly injections; assay type: in vivo; conditions: for growth of implanted tumours: twice weekly i.p. and intratumoural injections, 25 days (antibody stopped after 18 days), versus control
Description: as §5
Pilot Protocol. In this protocol, 6 mice were separated into three groups: a first group receiving injections of sterile water (control), a second group receiving injections of anti-PTHrP (1-34) antibody (Bachem, dissolved in sterile water) and a third group receiving injections of antagonist (Asn10, Leu11, D-Trp12)PTHrP(7-34) amide (Bachem, dissolved in sterile water). All injections were performed 2 times per week intra-peritoneally (50 μg/mouse of antibody or 20 μg/mouse of antagonist in 200 μl) and in intra-tumoural terms (25 μg/mouse of antibody or 10 μg/mouse of antagonist in […]). […] The volume of the tumours (length×width×depth×0.5236) was manually measured in a blind manner with callipers on days 0, 4, 7, 12, 14, 18, 23 and 25 after the first injection of the compounds under light gas anaesthesia with isoflurane. […]
as §6

[5] = daily antagonist, treated versus control group

(Asn10, Leu11, D-Trp12)PTHrP(7-34) amide (human, rat) [RPTH1 antagonist]
inhibition of cell proliferation (tumour cells 786-0 [1]): 70%
effect of antagonist on cell proliferation (tumour cells UOK-128): strongly inhibit
apoptotic index (TUNEL) of tumours [2, 5]: increased twofold
histopathological analysis of tumours [2, 5]: No polymorphic difference
number of intersection points of the vessels and total number of vessels per surface area [2, 5]: significantly increased
proliferation index (Ki67) of tumours [2, 5]: not different
growth of implanted tumours ([2]; daily i.p. 20 μg/mouse and intratumoural 10 μg/mouse, 17 days, versus control): totally inhibited; also recorded: completely blocks the tumour growth
effect of antagonist on cell proliferation (tumour cells UOK-126): inhibit very strongly
number of cells marked by EB (cell death) (tumour cells 786-0 [3]; 1 μM, compared with non-treated cells): clearly increases
cell adherence to the culture support (tumour cells 786-0 [3]; 10^−6 M, RPMI 1640 without serum): detaching the cells from the culture support
growth of implanted tumours [4]: blocks the growth
growth of implanted tumours ([4]; listed as antagonist): considerably slowed-down growth; also recorded: greatly slow down tumour growth
first day of significant tumour growth in comparison to day 0 ([4]; twice weekly treatment, control significant from day 7): 12 days
